Patent US6706663B2, “Herbicidal 3-heterocyclic substituted benzisothiazole and benzisoxazole compounds” (Wyeth, priority 2000, dated 2004)

Tests used:
ZEAMX (Corn, Field) = experiment: Preemergence herbicidal evaluation; type: in vivo, Zea mays, L.; settings: rated 4-5 weeks after treatment
[1] = system: TRZAWR (Wheat, Winter, cv Riband); experiment: Postemergence herbicidal evaluation; type: in vivo, Triticum aestivum; settings: postemergence
Procedure, shortened: (§1)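 Seedlings grown about two weeks in flats, sprayed, then kept under standard greenhouse care. Rated visually 4–5 weeks after treatment on a 0–9 scale (stand, vigour, malformation, size, chlorosis, overall appearance) relative to untreated control; repeat tests averaged.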

[2] = system: ECHCG (Echinochloa crus-galli); experiment: Postemergence herbicidal evaluation; type: in vivo, (L.) Beau; settings: postemergence
Procedure, shortened: as §1

[3] = system: ABUTH (Abutilon theophrasti); experiment: Preemergence herbicidal evaluation; type: in vivo, Medic.; settings: rated 4-5 weeks after treatment
[4] = system: SAGPY (Sagittaria pygmaea); experiment: Flooded paddy, preemergence weed control; type: in vivo, L.; settings: rated 3-4 weeks after treatment, 0-9 rating scale
Procedure, shortened: (§2)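 Visual 0–9 ratings versus controls scored stand, vigor, malformation, size, chlorosis and overall appearance. Plants grew from seeds or propagating organs sown 0.5 cm deep in silt loam, with water held 1.5–3 cm above the soil for the whole test under greenhouse care.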

[5] = system: GLXMAW (Soybean, Williams); experiment: Preemergence herbicidal evaluation; type: in vivo, Glycine max, (L.) Merr. cv Williams; settings: rated 4-5 weeks after treatment
[6] = system: CHEAL (Chenopodium album); experiment: Preemergence herbicidal evaluation; type: in vivo, L.; settings: rated 4-5 weeks after treatment
Procedure, shortened: (§3)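 Visual 0–9 rating versus control (stand, vigor, malformation, size, chlorosis, overall appearance), scored four to five weeks post-treatment. Preemergence spray of aqueous acetone solution onto freshly seeded soil cups; plants grown under conventional greenhouse care.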

[7] = system: CASOB (Cassia obtusifolia); experiment: Preemergence herbicidal evaluation; type: in vivo, L.; settings: rated 4-5 weeks after treatment
Procedure, shortened: as §3

[8] = system: AMBEL (Ambrosia artemisifolia); experiment: Preemergence herbicidal evaluation; type: in vivo, L.; settings: rated 4-5 weeks after treatment
Procedure, shortened: as §3

[9] = system: ECHORC (Echinochloa oryzoides); experiment: Flooded paddy, preemergence weed control; type: in vivo, Echinochloa oryzoides (Ard.) Fritsch.; settings: rated 3-4 weeks after treatment, 0-9 rating scale
Procedure, shortened: as §2

SETVI (Setaria viridis) = experiment: Postemergence herbicidal evaluation; type: in vivo, (L.) Beau; settings: postemergence
Procedure, shortened: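 Visual injury score (0-9: stand, vigor, malformation, size, chlorosis, overall appearance vs untreated control) taken four to five weeks post-spray. Two-week-old seedlings received about 0.0040 to 1.000 kg/ha active compound in acetone/water with 0.5% TWEEN 20.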

CYPIR (Cyperus iria) = experiment: Flooded paddy, preemergence weed control; type: in vivo; settings: rated 3-4 weeks after treatment, 0-9 rating scale
Procedure, shortened: as §2

[10] = system: IPOHE (Ipomoea hederacea); experiment: Preemergence herbicidal evaluation; type: in vivo, (L.) Jacq.; settings: rated 4-5 weeks after treatment
ORYSAT (Rice, Tebonnet) = experiment: Flooded paddy, post-transplant rice tolerance; type: in vivo, Oryza sativa, (L.) Tebonnet; settings: flooded paddy, post-transplant rice, rated 3-4 weeks after treatment, 0-9 rating scale
Procedure, shortened: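 Visual 0-9 rating against a control, covering stand, vigor, malformation, size, chlorosis and overall appearance. Treatment was applied after transplanting paired ten-day-old seedlings into flooded silt loam, with water kept 1.5 to 3 cm deep on greenhouse benches.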

[11] = system: MOOVA (Monochoria vaginalis); experiment: Flooded paddy, preemergence weed control; type: in vivo, Presl.; settings: rated 3-4 weeks after treatment, 0-9 rating scale
Procedure, shortened: as §2

Cn1c(C(F)(F)F)cc(=O)n(-c2ccc3snc(C4=NCCO4)c3c2)c1=O [Compound 75, 1-methyl-3-[3(2-oxazolin-2-yl)-1,2-benzisothiazol-5-yl]-6-(trifluoromethyl)uracil]
Preemergence herbicidal rating ZEAMX (ZEAMX (Corn, Field); Rate 0.0620 kg/ha): 1.0 | Preemergence herbicidal rating ZEAMX (ZEAMX (Corn, Field); Rate 0.1250 kg/ha): 2.0 | Preemergence herbicidal rating ZEAMX (ZEAMX (Corn, Field); Rate 0.2500 kg/ha): 3.0 | TRZAWR herbicidal rating ([1]; rate 0.0320 kg/ha): 2.0 | TRZAWR herbicidal rating ([1]; rate 0.0620 kg/ha): 3.5 | ECHCG herbicidal rating ([2]; rate 0.0320 kg/ha): 3.0 | ECHCG herbicidal rating ([2]; rate 0.0620 kg/ha): 3.0 | Preemergence herbicidal rating ABUTH ([3]; Rate 0.0620 kg/ha): 1.0 | Preemergence herbicidal rating ABUTH ([3]; Rate 0.1250 kg/ha): 1.0 | Preemergence herbicidal rating ABUTH ([3]; Rate 0.2500 kg/ha): 9.0 | herbicidal rating, SAGPY ([4]; rate 0.0080 kg/ha): 0.0 | herbicidal rating, SAGPY ([4]; rate 0.0320 kg/ha): 4.5 | herbicidal rating, SAGPY ([4]; rate 0.1250 kg/ha): 9.0 | Preemergence herbicidal rating GLXMAW ([5]; Rate 0.0620 kg/ha): 0.0 | Preemergence herbicidal rating GLXMAW ([5]; Rate 0.1250 kg/ha): 1.0 | Preemergence herbicidal rating GLXMAW ([5]; Rate 0.2500 kg/ha): 4.0 | Preemergence herbicidal rating CHEAL ([6]; Rate 0.0620 kg/ha): 9.0 | Preemergence herbicidal rating CHEAL ([6]; Rate 0.1250 kg/ha): 6.0 | Preemergence herbicidal rating CHEAL ([6]; Rate 0.2500 kg/ha): 9.0 | Preemergence herbicidal rating CASOB ([7]; Rate 0.0620 kg/ha): 0.0 | Preemergence herbicidal rating CASOB ([7]; Rate 0.1250 kg/ha): 1.0 | Preemergence herbicidal rating CASOB ([7]; Rate 0.2500 kg/ha): 1.0 | Preemergence herbicidal rating AMBEL ([8]; Rate 0.0620 kg/ha): 1.0 | Preemergence herbicidal rating AMBEL ([8]; Rate 0.1250 kg/ha): 3.0 | Preemergence herbicidal rating AMBEL ([8]; Rate 0.2500 kg/ha): 7.0 | herbicidal rating, ECHORC ([9]; rate 0.0080 kg/ha): 1.5 | herbicidal rating, ECHORC ([9]; rate 0.0320 kg/ha): 4.0 | herbicidal rating, ECHORC ([9]; rate 0.1250 kg/ha): 8.5 | SETVI herbicidal rating (SETVI (Setaria viridis); rate 0.0320 kg/ha): 2.0 | SETVI herbicidal rating (SETVI (Setaria viridis); rate 0.0620 kg/ha): 4.0 | herbicidal rating, CYPIR (CYPIR (Cyperus iria); rate 0.0080 kg/ha): 0.0 | herbicidal rating, CYPIR (CYPIR (Cyperus iria); rate 0.0320 kg/ha): 7.0 | herbicidal rating, CYPIR (CYPIR (Cyperus iria); rate 0.1250 kg/ha): 9.0 | Preemergence herbicidal rating IPOHE ([10]; Rate 0.0620 kg/ha): 0.0 | Preemergence herbicidal rating IPOHE ([10]; Rate 0.1250 kg/ha): 4.0 | Preemergence herbicidal rating IPOHE ([10]; Rate 0.2500 kg/ha): 7.0 | herbicidal rating, ORYSAT (rice tolerance) (ORYSAT (Rice, Tebonnet); rate 0.0080 kg/ha): 2.5 | herbicidal rating, ORYSAT (rice tolerance) (ORYSAT (Rice, Tebonnet); rate 0.0320 kg/ha): 4.5 | herbicidal rating, ORYSAT (rice tolerance) (ORYSAT (Rice, Tebonnet); rate 0.1250 kg/ha): 6.0 | herbicidal rating, MOOVA ([11]; rate 0.0080 kg/ha): 0.0 | herbicidal rating, MOOVA ([11]; rate 0.0320 kg/ha): 7.0 | herbicidal rating, MOOVA ([11]; rate 0.1250 kg/ha): 9.0

C=CC1COC(c2nsc3ccc(-n4c(=O)cc(C(F)(F)F)n(C)c4=O)cc23)O1 (stereo not drawn) [Compound 76, 1-methyl-6-(trifluoromethyl)-3-[3-(4-vinyl-1,3-dioxolan-2-yl)-1,2-benzisothiazol-5-yl]uracil]
Preemergence herbicidal rating ZEAMX (ZEAMX (Corn, Field); Rate 0.0620 kg/ha): 8.5 | Preemergence herbicidal rating ZEAMX (ZEAMX (Corn, Field); Rate 0.1250 kg/ha): 8.5 | Preemergence herbicidal rating ZEAMX (ZEAMX (Corn, Field); Rate 0.2500 kg/ha): 9.0 | TRZAWR herbicidal rating ([1]; rate 0.0320 kg/ha): 3.0 | TRZAWR herbicidal rating ([1]; rate 0.0620 kg/ha): 3.5 | ECHCG herbicidal rating ([2]; rate 0.0320 kg/ha): 0.0 | ECHCG herbicidal rating ([2]; rate 0.0620 kg/ha): 3.0 | Preemergence herbicidal rating ABUTH ([3]; Rate 0.0620 kg/ha): 9.0 | Preemergence herbicidal rating ABUTH ([3]; Rate 0.1250 kg/ha): 9.0 | Preemergence herbicidal rating ABUTH ([3]; Rate 0.2500 kg/ha): 9.0 | herbicidal rating, SAGPY ([4]; rate 0.0080 kg/ha): 0.0 | herbicidal rating, SAGPY ([4]; rate 0.0320 kg/ha): 0.0 | herbicidal rating, SAGPY ([4]; rate 0.1250 kg/ha): 9.0 | Preemergence herbicidal rating GLXMAW ([5]; Rate 0.0620 kg/ha): 7.5 | Preemergence herbicidal rating GLXMAW ([5]; Rate 0.1250 kg/ha): 9.0 | Preemergence herbicidal rating GLXMAW ([5]; Rate 0.2500 kg/ha): 9.0 | Preemergence herbicidal rating CHEAL ([6]; Rate 0.0620 kg/ha): 9.0 | Preemergence herbicidal rating CHEAL ([6]; Rate 0.1250 kg/ha): 9.0 | Preemergence herbicidal rating CHEAL ([6]; Rate 0.2500 kg/ha): 9.0 | Preemergence herbicidal rating CASOB ([7]; Rate 0.0620 kg/ha): 5.0 | Preemergence herbicidal rating CASOB ([7]; Rate 0.1250 kg/ha): 8.5 | Preemergence herbicidal rating CASOB ([7]; Rate 0.2500 kg/ha): 9.0 | Preemergence herbicidal rating AMBEL ([8]; Rate 0.0620 kg/ha): 9.0 | Preemergence herbicidal rating AMBEL ([8]; Rate 0.1250 kg/ha): 9.0 | Preemergence herbicidal rating AMBEL ([8]; Rate 0.2500 kg/ha): 9.0 | herbicidal rating, ECHORC ([9]; rate 0.0080 kg/ha): 5.0 | herbicidal rating, ECHORC ([9]; rate 0.0320 kg/ha): 7.0 | herbicidal rating, ECHORC ([9]; rate 0.1250 kg/ha): 9.0 | SETVI herbicidal rating (SETVI (Setaria viridis); rate 0.0320 kg/ha): 7.0 | SETVI herbicidal rating (SETVI (Setaria viridis); rate 0.0620 kg/ha): 9.0 | herbicidal rating, CYPIR (CYPIR (Cyperus iria); rate 0.0080 kg/ha): 7.0 | herbicidal rating, CYPIR (CYPIR (Cyperus iria); rate 0.0320 kg/ha): 8.0 | herbicidal rating, CYPIR (CYPIR (Cyperus iria); rate 0.1250 kg/ha): 9.0 | Preemergence herbicidal rating IPOHE ([10]; Rate 0.0620 kg/ha): 7.5 | Preemergence herbicidal rating IPOHE ([10]; Rate 0.1250 kg/ha): 9.0 | Preemergence herbicidal rating IPOHE ([10]; Rate 0.2500 kg/ha): 9.0 | herbicidal rating, ORYSAT (rice tolerance) (ORYSAT (Rice, Tebonnet); rate 0.0080 kg/ha): 2.0 | herbicidal rating, ORYSAT (rice tolerance) (ORYSAT (Rice, Tebonnet); rate 0.0320 kg/ha): 3.0 | herbicidal rating, ORYSAT (rice tolerance) (ORYSAT (Rice, Tebonnet); rate 0.1250 kg/ha): 9.0 | herbicidal rating, MOOVA ([11]; rate 0.0080 kg/ha): 9.0 | herbicidal rating, MOOVA ([11]; rate 0.0320 kg/ha): 9.0 | herbicidal rating, MOOVA ([11]; rate 0.1250 kg/ha): 9.0
